Measured values as given in patent US20250120958A1, “Treatment of GM2 Gangliosidosis” (Azafaros B.V., priority 2022, published 2025).
“Also recorded” adds a separate entry of the source.

Tests used:
[1] = Stability of dosing formulation; type: physicochemical; conditions: 0.01 mg/mL-2 mg/mL in purified water/citric acid/NaOH, storage 15-25° C.
Excerpt: • 1. Introduction and preparation of vehicle control • 1.1. Read the method prior to proceeding with laboratory work • 1.2. Read Study Plan • 1.3. Ensure the work-station is clean and select the correct equipment, clean glassware etc. for the study. • 1.4. Formulate in ascending order of concentration. • 1.5. Start with control group—measure the required volume of purified water and magnetically stir. Whilst magnetically stirring, adjust pH to 3.5-2.5 using 1 M citric acid. Record volumes in raw data. • 1.6. Stir for a minimum of 30 minutes. Record stir times in raw data. • 1.7. Adjust the pH to 4.5-5.5 using 0.1 M NaOH. Record volumes in raw data. • 1.8. Stir for a minimum of 20 minutes using a magnetic stirrer. Record stir times in the raw data. • 1.9. Sample at this point if required. • 2. Test item formulations • 2.1. Weigh the required amount of test item: e.g., For a 0.9 mg/mL target concentration in 600 mL, weigh 540 mg. • 2.2. Add 70% of the final volume of purified water to the test item to obtain a thin suspension (may be difficult to see at these low concentrations): e.g., 420 mL • 2.3. Add not more than 3 molar equivalents of citric acid, and record the pH which should be pH 3.5-2.5, e.g., 3.74 mL of 1 M citric acid solution in water. • Note: The suspension should clear up as an indication for dissolution of the test item. • 2.4. […]

[2] = Dynamic vapour sorption (DVS); type: physicochemical
Excerpt: In addition, the behaviour of the sample of the Form 3 crystalline form of compound of formula (I) obtained by equilibration with ethyl acetate was investigated under variable water vapour pressures (DVS measurement). At the highest relative humidity of 95% the sample absorbed about 1.2% of water that was released when the relative humidity was returned to the 50% RH. The amount of absorbed water is small, and the water sorption is reversible. […] For Form 2, at high relative humidity the sample absorbed about 18% of water; however, most of the absorbed water was released when the relative humidity was returned to the 50% RH.
Dynamic vapour sorption (DVS) measurements were performed with an SPS11-100n “Sorptions Prufsystem” from ProUmid (formerly “Projekt Messtechnik”), August-Nagel-Str. 23, 89079 Ulm (Germany). About 5 mg to 20 mg of sample was put into an aluminum sample pan. Humidity change rates of 5% per hour were used.

GlcCer C16:0 and C18:0 = experiment: Target engagement: GlcCer C16:0 and C18:0 in the cerebellum; type: in vivo, mouse; conditions: treated vs untreated heterozygous or Hexb (−/−) mice
Excerpt: Consistent with this action, the inhibition of GbA2 should result in an increase in GlcCer species in the brain where GbA2 plays a significant role.

[3] = system: GFAP (Glial fibrillary acidic protein); experiment: GFAP immunofluorescence in brain sections; type: in vivo, mouse; conditions: for GFAP staining, treated vs vehicle: midsections
Excerpt: (§1) Brain samples were collected, rinsed with saline and blotted dry. Samples were fixed in 4% PFA for immunohistochemical analyses; frozen and kept for gene expression and molecular biology analyses; and used frozen for LC-MS/MS analysis.
GFAP (Glial fibrillary acidic protein) a class-III intermediate filament protein, is a cell-specific marker that, during the development of the central nervous system, distinguishes astrocytes from other glial cells. Intermediate filaments form networks that provide support and strength to cells. Several molecules of glial fibrillary acidic protein bind together to form the type of intermediate filament found in astroglial cells. Astroglial cells support and nourish cells in the brain and spinal cord. If brain or spinal cord cells are injured through trauma or disease, astroglial cells react by rapidly producing more glial fibrillary acidic protein.

[4] = Brain pharmacokinetics after 16 weeks of once daily administration (LC-MS/MS); type: in vivo, mouse
Description: as §1
Unless otherwise stated, the methodology and sample collection were performed as in Example 2. […] Twenty-four hours after the last dose the animals were euthanized at varying time-points and AZ-3102 was measured by LC-MS/MS. […] However, exposure (AUC0-24) proportionality was well conserved between doses: 6 versus 3 (1.8-fold); 3 and 1.5 (2.0-fold) and 1.5 and 0.5 (2.4-fold). […] The reduced clearance in the brain versus plasma has also been observed in prior studies with rats and dogs (internal data). […] The plasma concentration at all doses was approximately 1 ng/mL after 24 h and in the brain the concentration was greater than 20 ng/g tissue.

[5] = system: Sandhoff mouse model (Hexb (−/−)); experiment: Rotarod (RR) test in Sandhoff mice; type: in vivo; conditions: 16 weeks, 0.5-6 mg/kg/day
Description: In the ROT, all animals were on the day before the first testing, habituated to the device for 5 min using a continuous rotation speed of 4-40 rotations per minute (rpm). For the subsequent experiments, no prior habituation was conducted. In the actual testing procedure, the test was conducted over 5 min with an accelerating rotation of 4-40 rpm. Time was measured until the animals fell from the rod. Up to 5 animals could be tested simultaneously.
Behavioral assessments, including open field tests (OFT, ActiMot, TSE systems) and rotarod (RR, IITC Life Sciences), were also performed. The OFT assessed motor skills by placing a mouse into a square box with high walls for 5 minutes to record several parameters, including distance travelled (centimetres) and resting time in zone (seconds). Motor coordination of mice was assessed using a RR apparatus as per previously published protocol (Osmon, Vyas et al. 2018). Briefly, mice were placed on moving cylinders that accelerated from 4 to 40 rotations per minute (rpm) over 5 minutes. Each mouse was allowed three trials on the RR with a minimum of 10 minutes for rest in-between assessments. The highest number achieved was recorded for each of the following parameters: latency to fall, end rotations per minute and distance travelled.

## OC[C@H]1[C@@H](O)[C@H](O)[C@@H](O)CN1CCCCCOCc1ccc(-c2ccccc2)c(F)c1 [AZ-3102]
[1]
  Stability of formulation: 8 days
[2]; DVS
  hygroscopicity: non-hygroscopic or substantially non-hygroscopic
[2]; highest relative humidity of 95%, reversible
  water absorbed (DVS): about 1.2%
GlcCer C16:0 and C18:0
  increase in GlcCer C16:0: approximately 10 fold
  increase in GlcCer C18:0: approximately 10 fold
[3]; caudal section of the brain, Het (Hexb+/−), Female
  GFAP immunofluorescence, Mean: 508.99
[3]; caudal section of the brain, Het (Hexb+/−), Male
  GFAP immunofluorescence, Mean: 425.10
[3]; caudal section of the brain, KO (Hexb−/−), Female
  GFAP immunofluorescence, Mean: 1656.84
[3]; caudal section of the brain, KO (Hexb−/−), Male
  GFAP immunofluorescence, Mean: 1762.82
[3]; midsection of the brain, Het (Hexb+/−), Female
  GFAP immunofluorescence, Mean: 298.81
[3]; midsection of the brain, Het (Hexb+/−), Male
  GFAP immunofluorescence, Mean: 395.99
[3]; midsection of the brain, KO (Hexb−/−), Female
  GFAP immunofluorescence, Mean: 747.75
[3]; midsection of the brain, KO (Hexb−/−), Male
  GFAP immunofluorescence, Mean: 866.38
[3]; Hexb−/− females
  GFAP staining, treated vs vehicle: statistical decrease
[3]; Hexb−/− males
  GFAP staining, treated vs vehicle: trend to having a decrease
[4]; 24 h period, most dose groups
  concentration profile in brain: sustained with very little decrease
[4]; Hexb (−/−) and Hexb (+/−), mouse, brain, oral, all doses
  concentration at 24 h: > 20 ng/g
[5]
  RR assessments, effect of treatment vs vehicle: significant at all dose levels; also recorded: significantly improved
